# According to patent US9150526B2, “Biaryl-propionic acid derivatives and their use as pharmaceuticals” (SANOFI, priority 2013, dated 2015):
# Tested on: Recombinant human cathepsin A
# Assay: Cathepsin A inhibitory activity (Bodipy FL-bradykinin substrate, microfluidic capillary electrophoresis)
# Assay type: biochemical
# Settings: read-out: CATH A IC50
# Experimental: Pharmacological Tests a) Cathepsin a Inhibitory Activity
# Recombinant human cathepsin A (residues 29-480, with a C-terminal 10-His tag; R&D Systems, #1049-SE) was proteolytically activated with recombinant human cathepsin L (R&D Systems, #952-CY). Briefly, cathepsin A was incubated at 10 μg/ml with cathepsin L at 1 μg/ml in activation buffer (25 mM 2-(morpholin-4-yl)-ethanesulfonic acid (MES), pH 6.0, containing 5 mM dithiothreitol (DTT)) for 15 min at 37° C.
# The activated cathepsin A was diluted in assay buffer (25 mM MES, pH 5.5, containing 5 mM DTT) and mixed with the test compound (dissolved in assay buffer containing (v/v) 3% DMSO) or, in the control experiments, with the vehicle in a multiple assay plate. After incubation for 15 min at room temperature, as substrate then bradykinin carrying an N-terminal ®Bodipy FL (4,4-difluoro-5,7-dimethyl-4-bora-3a,4a-diaza-s-indacene-3-propionyl) label (JPT Peptide Technologies GmbH; dissolved in assay buffer) was added to the mixture. The final concentration of cathepsin A was 833 ng/ml and the final concentration of labeled bradykinin 2 μM. After incubation for 15 min at room temperature the reaction was stopped by the addition of stop buffer (130 mM 2-(4-(2-hydroxy-ethyl)-piperazin-1-yl)-ethanesulfonic acid, pH 7.4, containing (v/v) 0.013% ®Triton X-100, 0.13% Coating Reagent 3 (Caliper Life Sciences), 6.5% DMSO and 20 μM ebelactone B (Sigma, # E0886)).
# Uncleaved substrate and product were then separated by a microfluidic capillary electrophoresis on a LabChip® 3000 Drug Discovery System (12-Sipper-Chip; Caliper Life Sciences) and quantified by determination of the respective peak areas. Substrate turnover was calculated by dividing product peak area by the sum of substrate and product peak areas, and the enzyme activity and the inhibitory effect of the test compound thus quantified.
row,SMILES,IC50
1,COc1ccc(OC(F)(F)F)cc1-c1cccc(C(CC(=O)O)c2nnc(C)o2)c1 (stereo not shown) [compound 143],85 nM
2,COc1ccc(C(C)C)cc1-c1cc(Cl)cc(C(CC(=O)O)c2ncc(C)s2)c1 (stereo not shown) [compound 87],93 nM
3,COc1cccc(C#N)c1-c1cc(F)cc(C(CC(=O)O)c2nnc(C)o2)c1 (stereo not shown) [compound 163],446 nM
4,CCOc1ccccc1-c1cccc(C(CC(=O)O)c2nnc(C)o2)c1 (stereo not shown) [compound 144],91 nM
5,COc1ccc(C)cc1-c1cncc(C(CC(=O)O)c2nnc(C)o2)c1 (stereo not shown) [compound 181],2220 nM
6,COc1ccccc1-c1cncc(C(CC(=O)O)c2nnc(C)o2)c1 (stereo not shown) [compound 190],5800 nM
7,COc1ccc(C(C)(C)C#N)cc1-c1cc(F)cc(C(CC(=O)O)c2nnc(C)o2)c1 (stereo not shown) [compound 222],4 nM
8,COc1c(C)cccc1-c1cc(C(CC(=O)O)c2nnc(C)o2)cc(C(F)(F)F)c1 (stereo not shown) [compound 220],53 nM
9,COc1ccc(C)cc1-c1ccc(OC)c(C(CC(=O)O)c2ncc(C)s2)c1 (stereo not shown) [compound 67],9690 nM
10,COc1c(C)cccc1-c1cc(Cl)cc(C(CC(=O)O)c2ncc(C)s2)c1 (stereo not shown) [compound 93],164 nM
11,COc1ccc(Cl)cc1-c1cccc(C(CC(=O)O)c2nc(C)c(C)s2)c1 (stereo not shown) [compound 19],657 nM
12,COc1ccc(C(C)(C)C)cc1-c1cncc(C(CC(=O)O)c2nnc(C)o2)c1 (stereo not shown) [compound 182],452 nM
13,COc1ccc(C(F)(F)F)cc1-c1cccc(C(CC(=O)O)c2nccs2)c1 (stereo not shown) [compound 22],134 nM
14,COc1cccc(C#N)c1-c1cccc(C(CC(=O)O)c2nccs2)c1 (stereo not shown) [compound 47],1750 nM
15,COc1ccc(-c2cc(Cl)cc(C(CC(=O)O)c3nnc(C)o3)c2)c(OC)c1 (stereo not shown) [compound 172],33 nM
16,COc1ccc2c(c1-c1cc(C(CC(=O)O)c3nnc(C)o3)cc(C(F)(F)F)c1)OC(C)(C)C2 (stereo not shown) [compound 207],10 nM
17,COc1cc(CO)ccc1-c1cccc(C(CC(=O)O)c2nccs2)c1 (stereo not shown) [compound 30],201 nM

row,SMILES,IC50
1,COc1ccccc1-c1cc(F)cc(C(CC(=O)O)c2ncc(C)s2)c1 (stereo not shown) [compound 110],116 nM
2,Cc1cnc(C(CC(=O)O)c2cc(Cl)cc(-c3ccccc3OC(F)(F)F)c2)s1 (stereo not shown) [compound 95],221 nM
3,Cc1nnc(C(CC(=O)O)c2cc(Cl)cc(-c3ccccc3OC(F)(F)F)c2)o1 (stereo not shown) [compound 158],89 nM
4,COc1cccc(OC)c1-c1cc(Cl)cc(C(CC(=O)O)c2nnc(C)o2)c1 (stereo not shown) [compound 154],5 nM
5,COc1cccc(Cl)c1-c1cccc(C(CC(=O)O)c2nnc(C)o2)c1 (stereo not shown) [compound 142],80 nM
6,COc1cc(OC(F)(F)F)ccc1-c1cccc(C(CC(=O)O)c2nccs2)c1 (stereo not shown) [compound 46],1530 nM
7,Cc1nnc(C(CC(=O)O)c2cc(-c3ccccc3OC(F)(F)F)cc(C(F)(F)F)c2)o1 (stereo not shown) [compound 208],65 nM
8,COc1cc(C)cc(OC)c1-c1cccc(C(CC(=O)O)c2nccs2)c1 (stereo not shown) [compound 14],66 nM
9,COc1ccc(C(C)C)cc1-c1cc(Cl)cc(C(CC(=O)O)c2nnc(C)o2)c1 (stereo not shown) [compound 153],25 nM
10,COc1cccc(OC)c1-c1cccc(C(CC(=O)O)c2nccs2)c1 (stereo not shown) [compound 20],30 nM
11,COc1ccc(-c2cc(Cl)cc(C(CC(=O)O)c3ncc(C)s3)c2)c(OC)c1 (stereo not shown) [compound 83],53 nM
12,CCOc1ccccc1-c1cc(C(CC(=O)O)c2nnc(C)o2)cc(C(F)(F)F)c1 (stereo not shown) [compound 210],14 nM
13,COc1ccc(S(C)(=O)=O)cc1-c1cccc(C(CC(=O)O)c2nnc(C)o2)c1 (stereo not shown) [compound 149],265 nM
14,COc1ccc(C(C)C)cc1-c1cncc(C(CC(=O)O)c2nnc(C)o2)c1 (stereo not shown) [compound 183],1030 nM
15,COc1ccc(OC(F)(F)F)cc1-c1cc(Cl)cc(C(CC(=O)O)c2ncc(C)s2)c1 (stereo not shown) [compound 94],165 nM
16,COc1cccc(Cl)c1-c1cccc(C(CC(=O)O)c2nccs2)c1 (stereo not shown) [compound 31],292 nM
17,COc1cccc(Cl)c1-c1cc(F)cc(C(CC(=O)O)c2ncc(C)s2)c1 (stereo not shown) [compound 105],96 nM
